Data on seven compounds can be found in patent publication US10370380B2, “Octahydropyrrolo[3,4-c]pyrrole derivatives and uses thereof” (Sunshine Lake Pharma Co., Ltd., priority 2015, dated 2019).

Each structure is given as a SMILES string. Where two headings read alike, the source gives them in different places.

The target in one series is T1, humanized OX2 receptor (Homo sapiens, UniProt O43614).
T1 construct: expressed in transfected cells; host or cells: HEK-293 cells
T1 sequence (O43614 1-444): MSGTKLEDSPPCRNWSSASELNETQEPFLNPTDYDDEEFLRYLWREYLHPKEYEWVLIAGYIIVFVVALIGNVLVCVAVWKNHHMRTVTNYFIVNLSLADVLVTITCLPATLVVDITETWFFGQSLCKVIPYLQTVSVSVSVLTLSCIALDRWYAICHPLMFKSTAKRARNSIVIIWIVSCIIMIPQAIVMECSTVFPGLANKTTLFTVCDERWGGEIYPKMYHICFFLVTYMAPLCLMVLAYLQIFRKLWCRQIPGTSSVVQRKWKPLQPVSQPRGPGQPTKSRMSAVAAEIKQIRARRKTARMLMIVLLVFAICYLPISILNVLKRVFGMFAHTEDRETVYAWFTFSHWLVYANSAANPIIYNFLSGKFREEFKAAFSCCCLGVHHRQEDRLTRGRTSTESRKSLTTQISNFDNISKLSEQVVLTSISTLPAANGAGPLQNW
In words: Antagonistic effect on humanized OX2 receptor, calcium flux by fluorescence detection in HEK-293 cells. The class given is cell-based. On the procedure: (§1) The capability of the compounds provided herein to antagonize humanized OX2 receptors expressed in HEK-293 cells was evaluated by the influence of the compounds disclosed herein on calcium flux in cells induced by agonist detected by a method of fluorescence detection. The cells were suspended in DMEM culture medium (invitrogen), and then added to a microplate with an average density of 3×10^4 cells/well. The Hank's balanced salt solution (pH 7.4) containing fluorescent probes (Fluo4 NW, Invitrogen), probenecid (invitrogen), 20 mM […] (invitrogen) was added to the above microplate, and then incubated together with the cells at 37° C. for 60 min, further incubated at 22° C. for 15 min. The microplate was placed in a microplate reader (CellLux, PerkinElmer), and to which was added the test compound or reference antagonist or Hank's balanced salt solution, 5 min later, 10 nM of orexin B or Hank's balanced salt solution (as a blank contrast) was added. […] The experimental results were expressed as an inhibition percentage relative to a control group (the group with 10 nM of orexin B).
The standard reference antagonist is JNJ10397049, and IC50 values were calculated by the dose-effect curve obtained from a series of concentrations of the experimental test.
A general note: A change in cytosolic calcium serves as a functional read-out for many receptors and channels.

A further series deals with T2, humanized OX1 receptor (Homo sapiens, UniProt O43613).
T2 construct: expressed in transfected cells; host or cells: CHO (Chinese hamster ovary) cells
T2 sequence (O43613 1-425): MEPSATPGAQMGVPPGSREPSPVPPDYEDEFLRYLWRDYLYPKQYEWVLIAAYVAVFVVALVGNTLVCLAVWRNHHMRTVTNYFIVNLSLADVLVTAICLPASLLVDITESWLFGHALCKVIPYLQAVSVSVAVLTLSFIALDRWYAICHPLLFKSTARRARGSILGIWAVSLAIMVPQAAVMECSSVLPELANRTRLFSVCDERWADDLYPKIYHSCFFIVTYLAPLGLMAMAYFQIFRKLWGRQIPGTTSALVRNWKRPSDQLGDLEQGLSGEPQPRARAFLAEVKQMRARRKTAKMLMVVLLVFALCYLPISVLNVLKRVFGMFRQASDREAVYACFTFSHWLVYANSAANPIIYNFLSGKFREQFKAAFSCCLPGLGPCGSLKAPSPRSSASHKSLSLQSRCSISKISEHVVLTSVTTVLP
In words: Antagonistic effect on humanized OX1 receptor, calcium flux by fluorescence detection in CHO cells. The class given is cell-based. Conditions: CHO cells, calcium flux induced by 3 nM orexin A; read-out: OX1 IC50. On the procedure:
as §1, with “OX1 receptor” for “OX2 receptors”, “Chinese hamster ovary (CHO)” for “HEK-293”, “2×10^4” for “3×10^4”, “3” for “10”, “A” for “B”, “A).” for “B).”
The standard reference antagonist is SB334867, and IC50 values were calculated by the dose-effect curve obtained from a series of concentrations of the experimental test.

Series [1] is described as follows: Pharmacokinetic evaluation after intravenous or gavage administration to rats. The class given is in vivo, SD rats. Conditions: SD, rat, in vivo. On the procedure: (§2) The compounds disclosed herein were administered in form of a saline solution containing 5% DMSO, 5% Kolliphor HS 15, 2% (2% HCl) and 88% Saline, or a solution containing 10% DMSO, 10% Kolliphor HS 15 and 80% physiological saline to the subject animals. For intravenous administration, the animals were administered with a dose of 1 mg/kg or 2 mg/kg, and vein blood samples (0.3 mL) were collected at the time points of 0.083, 0.25, 0.5, 1.0, 2.0, 4.0, 6.0, 8.0 and 24 h after drug administration; plasma samples were collected by centrifugation of the vein blood samples at 3000 rpm or 4000 rpm for 10 minutes, and stored at −20° C. or −70° C. For gavage administration, the animals were administered with a dose of 2.5 mg/kg or 5 mg/kg, and vein blood samples (0.3 mL) were collected at the time points of 0.25, 0.5, 1.0, 2.0, 4.0, 6.0, 8.0 and 24 h after drug administration; plasma samples were collected by centrifugation at 3000 rpm or 4000 rpm for 10 minutes, and stored at −20° C. or −70° C. The positive control is suvorexant.
(§3) The above plasma samples were analyzed by the LC-MS/MS system.

The nature of series [2]: Pharmacokinetic evaluation after intravenous or gavage administration to dogs. The class given is in vivo, Beagle dogs. Conditions: beagle, dog, in vivo. As for the experimental part:
as §2, §3

[3] abbreviates: HEK-293 cells, calcium flux induced by 10 nM orexin B, read-out: OX2 IC50.

As a reminder, the IC50 is the concentration needed to halve the response being measured. As for `O=C(c1ccccc1-n1nccn1)N1CC2CN(c3nc4cc(F)ccc4o3)CC2C1` (centres unmarked) [Example 5, (2-(2H-1,2,3-triazol-2-yl)phenyl)(5-(5-fluorobenzo[d]oxazol-2-yl)hexahydropyrrolo[3,4-c]pyrrol-2(1H)-yl)methanone], the values for the IC50 on humanized OX2 receptor (setting [3]) and on humanized OX1 receptor were 235 nM and 642 nM, respectively.
For `O=C(c1c(F)cccc1-n1nccn1)N1CC2CN(c3nc4cc(F)ccc4o3)CC2C1` (centres unmarked) [Example 6, (2-fluoro-6-(2H-1,2,3-triazol-2-yl)phenyl)(5-(5-fluorobenzo[d]oxazol-2-yl)hexahydropyrrolo[3,4-c]pyrrol-2(1H)-yl)methanone] the same measures were 201 nM and 589 nM.
The AUC(0-inf) is the area under the concentration-time curve extrapolated to infinity. Low values mean less exposure, high ones more exposure. One may read the AUC(0-t) as the area under the concentration-time curve up to a stated or last time point. The low end stands for less exposure, the high end for more exposure. In general, Cmax refers to the peak of the concentration-time curve. Broadly, the MRT inf is a mean duration of stay, worked out from the concentration-time curve. The half-life is how long it takes for the measured level to halve. A low value points to fast loss. In series [1] (iv, 1 mg/kg), `O=C(c1ccccc1-n1nccn1)N1CC2CN(c3ncc4cc(F)ccc4n3)CC2C1` (centres unmarked) [Example 13, (2-(2H-1,2,3-triazol-2-yl)phenyl)(5-(6-fluoroquinazolin-2-yl)hexahydropyrrolo [3,4-c]pyrrol-2(1H)-yl)methanone] had an AUC(0-inf) of 865 ng·h/mL, an AUC(0-t) of 864 ng·h/mL, a Cmax of 1270 ng/mL and an MRT inf of 32.9 min. In series [1] (iv, 1 mg/kg), this compound gave a Vd of 0.648 L/kg, a clearance of 20.1 mL/min/kg and a half-life of 30.1 min. For the same compound, in series [1] (po, 2.5 mg/kg), the AUC(0-inf) is 752 ng·h/mL, the AUC(0-t) was 750 ng·h/mL, the Cmax was 537 ng/mL and the F stood at 34.7%. For the same compound, in series [1] (po, 2.5 mg/kg), the MRT inf was 70.2 min and the half-life is 41 min.
As to `Cc1ccc(-n2nccn2)c(C(=O)N2CC3CN(c4nc5cc(F)ccc5o4)CC3C2)c1` (centres unmarked) [Example 4, (5-(5-fluorobenzo[d]oxazol-2-yl)hexahydropyrrolo[3,4-c]pyrrol-2(1H)-yl)(5-methyl-2-(2H-1,2,3-triazol-2-yl)phenyl)methanone], the IC50 at humanized OX2 receptor stood at 342 nM; on humanized OX1 receptor, 611 nM.
On to `O=C(c1ccccc1-n1nccn1)N1CC2CN(c3nc4cc(Cl)ccc4o3)CC2C1` (centres unmarked) [Example 2, (2-(2H-1,2,3-triazol-2-yl)phenyl)(5-(5-chlorobenzo[d]oxazol-2-yl)hexahydropyrrolo[3,4-c]pyrrol-2(1H)-yl)methanone], for which the IC50 at humanized OX2 receptor (setting [3]) was 221 nM. In series [1] (iv, 1 mg/kg), this compound had an AUC(0-inf) of 551 ng·h/mL, an AUC(0-t) of 549 ng·h/mL, a Cmax of 639 ng/mL and an MRT inf of 47.2 min. In series [1] (iv, 1 mg/kg), the Vd is 1.42 L/kg, the clearance came to 30.4 mL/min/kg and the half-life is 36.1 min. In series [1] (po, 2.5 mg/kg), the AUC(0-inf) was 790 ng·h/mL, the AUC(0-t) was found to be 783 ng·h/mL, the Cmax is 485 ng/mL and the F stood at 57.3%. In series [1] (po, 2.5 mg/kg), the MRT inf was 88.8 min and the half-life is 61.8 min.
Regarding `O=C(c1c(F)cccc1-n1nccn1)N1CC2CN(c3nc4cc(Cl)ccc4o3)CC2C1` (centres unmarked) [Example 3, (5-(5-chlorobenzo[d]oxazol-2-yl)hexahydropyrrolo[3,4-c]pyrrol-2(1H)-yl)(2-fluoro-6-(2H-1,2,3-triazol-2-yl)phenyl)methanone], at humanized OX2 receptor (setting [3]), the IC50 was 147 nM. In series [1] (iv, 1 mg/kg), the total exposure AUC(0-inf) stood at 626 ng·h/mL, the AUC(0-t) is 624 ng·h/mL, the concentration peaked (Cmax) at 760 ng/mL and the MRT inf came to 45.5 min. Further, in series [1] (iv, 1 mg/kg), the Vd was found to be 1.21 L/kg, the clearance turned out to be 26.7 mL/min/kg and the half-life is 34.6 min. Besides, in series [1] (po, 2.5 mg/kg), the AUC(0-inf) came to 907 ng·h/mL, the AUC(0-t) was 904 ng·h/mL, the peak level (Cmax) was 567 ng/mL and the F is 57.9%. Besides, in series [1] (po, 2.5 mg/kg), the MRT inf worked out at 82.2 min and the half-life was 52.4 min. Moreover, in series [2] (iv, 1 mg/kg), the AUC(0-inf) worked out at 8330 ng·h/mL, the AUC(0-t) came out at 8320 ng·h/mL, the peak level (Cmax) was 3830 ng/mL and the MRT inf was 175 min. In series [2] (iv, 1 mg/kg), this compound showed a Vd of 1.75 L/kg and a half-life of 144 min. In series [2] (po, 5 mg/kg), this compound returned an AUC(0-t) of 35000 ng·h/mL, a Cmax of 5640 ng/mL, an F of 84.0% and a mean residence time (MRT inf) of 275 min. For the same compound, the half-life in series [2] (po, 5 mg/kg) was 176 min.
`Cc1ccc(-n2nccn2)c(C(=O)N2CC3CN(c4ncc5cc(F)ccc5n4)CC3C2)c1` (centres unmarked) [Example 12, (5-(6-fluoroquinazolin-2-yl)hexahydropyrrolo[3,4-c]pyrrol-2(1H)-yl)(5-methyl-2-(2H-1,2,3-triazol-2-yl)phenyl)methanone]: on humanized OX2 receptor (setting [3]), the IC50 turned out to be 140 nM. In series [1] (iv, 1 mg/kg), this compound came in with an AUC(0-inf) of 460 ng·h/mL, an AUC(0-t) of 460 ng·h/mL, a Cmax of 749 ng/mL and an MRT inf of 25.6 min. In series [1] (iv, 1 mg/kg), the Vd came to 0.987 L/kg, the clearance is 40.1 mL/min/kg and the half-life is 24.3 min. Further, in series [1] (po, 2.5 mg/kg), the AUC(0-inf) is 454 ng·h/mL, the AUC(0-t) came to 452 ng·h/mL, the peak level (Cmax) was 340 ng/mL and the F is reported as 39.3%. Besides, in series [1] (po, 2.5 mg/kg), the MRT inf came to 76.8 min and the half-life was 50.2 min. In addition, the IC50 on humanized OX1 receptor amounted to 347 nM. In addition, in series [2] (iv, 1 mg/kg), the AUC(0-inf) is 1140 ng·h/mL, the AUC(0-t) came to 1130 ng·h/mL, the Cmax is 1390 ng/mL and the mean residence time (MRT inf) is 58.2 min. Besides, in series [2] (iv, 1 mg/kg), the Vd came to 0.85 L/kg, the clearance is 14.7 mL/min/kg and the half-life is 42 min. Further, in series [2] (po, 5 mg/kg), the AUC(0-inf) was 7880 ng·h/mL, the AUC(0-t) was 7310 ng·h/mL, the Cmax was found to be 2310 ng/mL and the F is 129.4%. In series [2] (po, 5 mg/kg), this compound showed an MRT inf of 187 min and a half-life of 119 min.
